pEC50: −log10 of the molar value.

In the first experiment the test system is HBsAg. The experiment in a line: HBsAg assay: inhibition of HBsAg in HepG2.2.15 cells (chemiluminescence immunoassay of supernatant). Particulars: Hepatitis B virus, HepG2.2.15, 144 h, read-out: sAg EC50, HepG2.2.15 cells; HBsAg in supernatant at day 6 after exposure to compound; 0.5% DMSO. It is filed as cell-based, hepatitis B virus. The procedure, abridged:
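Secreted HBsAg quantified by CLIA in day-6 supernatants of HepG2.2.15 cultures given compound dilutions at 0.5% final DMSO, with one compound/medium replenishment after 2–3 days. Dose-response fits gave EC50 (50% inhibition); viability checked separately by CellTiter-Glo.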
On to `O[C@@H]1CCN(c2cc(C3CC3c3cnc(-c4ncccn4)nc3)ccc2F)C1` (single isomer, unassigned) [Example 69], for which the pEC50 (usually the EC50 on a negative log10 scale, so that one unit is a factor of ten) is 6.77.

With `COc1cc(C2CC2c2cnc(-c3ncccn3)nc2)c(F)cc1Cl` (single isomer, unassigned) [Example 86, trans-5-(2-(4-Chloro-2-fluoro-5-methoxyphenyl)cyclopropyl)-2,2′-bipyrimidine], the pEC50 was 6.89.

Regarding `Fc1cc(C2CC2c2cnc(-c3ncccn3)nc2)cc(N2CCCC2)c1Cl` (single isomer, unassigned) [Example 90, trans-5-(2-(4-Chloro-3-fluoro-5-(pyrrolidin-1-yl)phenyl)cyclopropyl)-2,2′-bipyrimidine], the negative-log EC50 (pEC50) was 7.55.

Take `Fc1cc(C2CC2c2cnc(-c3ncccn3)nc2)cc(N2CCCC2)c1F` (single isomer, unassigned) [Example 92, trans-5-(2-(3,4-Difluoro-5-(pyrrolidin-1-yl)phenyl)cyclopropyl)-2,2′-bipyrimidine]: the negative-log EC50 (pEC50) is 7.62.

Turning to `CO[C@@H]1CCN(c2cc(C3CC3c3cnc(-c4ncccn4)nc3)ccc2F)C1` (single isomer, unassigned) [Example 94], the negative-log EC50 (pEC50) is 6.57.

Still in this experiment, the particulars now being: read-out: sAg EC50; HepG2.2.15 cells; HBsAg in supernatant at day 6 after exposure to compound; 0.5% DMSO.
For `Cc1c(C2CC2c2cnc(-c3ncccn3)nc2)ccc(Cl)c1OCC1CC1` (single isomer, unassigned) [Example 61, trans-5-(2-(4-Chloro-3-(cyclopropylmethoxy)-2-methylphenyl)cyclopropyl)-2,2′-bipyrimidine], the negative-log EC50 (pEC50) was 6.37.

On to `Cc1c(C2CC2c2cnc(-c3ncccn3)nc2)ccc(Cl)c1OCC1CC1` (single isomer, unassigned) [Example 62, trans-5-(2-(4-Chloro-3-(cyclopropylmethoxy)-2-methylphenyl)cyclopropyl)-2,2′-bipyrimidine], for which the negative-log EC50 (pEC50) is 4.31.

For `CN(C)c1cc(C2CC2c2cnc(-c3ncccn3)nc2)ccc1F` (single isomer, unassigned) [Example 63, trans-5-(2-([2,2′-Bipyrimidin]-5-yl)cyclopropyl)-2-fluoro-N,N-dimethylaniline], the pEC50 was 6.41.

As for `CN(C)c1cc(C2CC2c2cnc(-c3ncccn3)nc2)ccc1F` (single isomer, unassigned) [Example 64, trans-5-(2-([2,2′-Bipyrimidin]-5-yl)cyclopropyl)-2-fluoro-N,N-dimethylaniline], the pEC50 was 5.52.

For `O[C@H]1CCN(c2cc(C3CC3c3cnc(-c4ncccn4)nc3)ccc2F)C1` (single isomer, unassigned) [Example 65], the pEC50 was 6.24.

Regarding `O[C@H]1CCN(c2cc(C3CC3c3cnc(-c4ncccn4)nc3)ccc2F)C1` (single isomer, unassigned) [Example 66], the pEC50 is 6.64.

In the case of `CO[C@H]1CCN(c2cc(C3CC3c3cnc(-c4ncccn4)nc3)ccc2F)C1` (single isomer, unassigned) [Example 67], the pEC50 is 6.74.

Regarding `CO[C@H]1CCN(c2cc(C3CC3c3cnc(-c4ncccn4)nc3)ccc2F)C1` (single isomer, unassigned) [Example 68], the pEC50 was 7.07.

As for `O[C@@H]1CCN(c2cc(C3CC3c3cnc(-c4ncccn4)nc3)ccc2F)C1` (single isomer, unassigned) [Example 70], the pEC50 is 6.57.

As to `COc1c(Cl)ccc(C2CC2c2cnc(-c3ncccn3)nc2)c1C` (single isomer, unassigned) [Example 71, trans-5-(2-(4-Chloro-3-methoxy-2-methylphenyl)cyclopropyl)-2,2′-bipyrimidine], the pEC50 is 6.70.

As to `COc1c(Cl)ccc(C2CC2c2cnc(-c3ncccn3)nc2)c1C` (single isomer, unassigned) [Example 72, trans-5-(2-(4-Chloro-3-methoxy-2-methylphenyl)cyclopropyl)-2,2′-bipyrimidine], the pEC50 is 7.05.

As to `COc1cc(C2CC2c2cnc(-c3ncccn3)nc2C(C)C)ccc1F` (single isomer, unassigned) [Example 74, trans-5-(2-(4-Fluoro-3-methoxyphenyl)cyclopropyl)-4-isopropyl-2,2′-bipyrimidine], the negative logarithm of the EC50 (pEC50) is 5.00.

`COc1cc(C2CC2c2cnc(-c3ncccn3)nc2C(C)C)ccc1F` (single isomer, unassigned) [Example 75, trans-5-(2-(4-Fluoro-3-methoxyphenyl)cyclopropyl)-4-isopropyl-2,2′-bipyrimidine]: the negative-log EC50 (pEC50) is 5.70.

Consider `CCc1nc(-c2ncccn2)ncc1C1CC1c1ccc(F)c(OC)c1` (single isomer, unassigned) [Example 76, trans-4-Ethyl-5-(2-(4-fluoro-3-methoxyphenyl)cyclopropyl)-2,2′-bipyrimidine], for which the negative logarithm of the EC50 (pEC50) is 5.70.

As to `CCc1nc(-c2ncccn2)ncc1C1CC1c1ccc(F)c(OC)c1` (single isomer, unassigned) [Example 77, trans-4-Ethyl-5-(2-(4-fluoro-3-methoxyphenyl)cyclopropyl)-2,2′-bipyrimidine], the negative logarithm of the EC50 (pEC50) was 5.30.

Regarding `COc1cc(C2CC2c2cnc(-c3ncccn3)nc2C2CCCCC2)ccc1F` (single isomer, unassigned) [Example 78, trans-4-Cyclohexyl-5-(2-(4-fluoro-3-methoxyphenyl)cyclopropyl)-2,2′-bipyrimidine], the pEC50 was 4.96.

As for `COc1cc(C2CC2c2cnc(-c3ncccn3)nc2C2CCCCC2)ccc1F` (single isomer, unassigned) [Example 79, trans-4-Cyclohexyl-5-(2-(4-fluoro-3-methoxyphenyl)cyclopropyl)-2,2′-bipyrimidine], the pEC50 is 6.66.

`COc1cc(C2CC2c2cnc(-c3ncccn3)nc2OC)ccc1F` (single isomer, unassigned) [Example 80, trans-5-(2-(4-Fluoro-3-methoxyphenyl)cyclopropyl)-4-methoxy-2,2′-bipyrimidine]: the negative logarithm of the EC50 (pEC50) was 7.00.

For `COc1cc(C2CC2c2cnc(-c3ncccn3)nc2OC)ccc1F` (single isomer, unassigned) [Example 81, trans-5-(2-(4-Fluoro-3-methoxyphenyl)cyclopropyl)-4-methoxy-2,2′-bipyrimidine], the pEC50 was 6.64.

Regarding `Fc1ccc(C2CC2c2cnc(-c3ncccn3)nc2)cc1N1CCC1` (single isomer, unassigned) [Example 82, trans-5-(2-(3-(Azetidin-1-yl)-4-fluorophenyl)cyclopropyl)-2,2′-bipyrimidine], the pEC50 is 6.96.

For the compound `Fc1ccc(C2CC2c2cnc(-c3ncccn3)nc2)cc1N1CCC1` (single isomer, unassigned) [Example 83, trans-5-(2-(3-(Azetidin-1-yl)-4-fluorophenyl)cyclopropyl)-2,2′-bipyrimidine], the pEC50 was 7.46.

Consider `COc1cc(C2CC2c2cnc(-c3ncccn3)nc2)cc(F)c1F` (single isomer, unassigned) [Example 84, trans-5-(2-(3,4-Difluoro-5-methoxyphenyl)cyclopropyl)-2,2′-bipyrimidine], for which the pEC50 is 6.62.

Regarding `COc1cc(C2CC2c2cnc(-c3ncccn3)nc2)cc(F)c1F` (single isomer, unassigned) [Example 85, trans-5-(2-(3,4-Difluoro-5-methoxyphenyl)cyclopropyl)-2,2′-bipyrimidine], the negative logarithm of the EC50 (pEC50) is 7.54.

Consider `COc1cc(C2CC2c2cnc(-c3ncccn3)nc2)c(F)cc1Cl` (single isomer, unassigned) [Example 87, trans-5-(2-(4-Chloro-2-fluoro-5-methoxyphenyl)cyclopropyl)-2,2′-bipyrimidine], for which the negative logarithm of the EC50 (pEC50) was 6.85.

Turning to `COc1cc(C2CC2c2cnc(-c3ncccn3)nc2)c(Cl)cc1Cl` (single isomer, unassigned) [Example 88, trans-5-(2-(2,4-Dichloro-5-methoxyphenyl)cyclopropyl)-2,2′-bipyrimidine], the negative-log EC50 (pEC50) was 7.08.

With `COc1cc(C2CC2c2cnc(-c3ncccn3)nc2)c(Cl)cc1Cl` (single isomer, unassigned) [Example 89, trans-5-(2-(2,4-Dichloro-5-methoxyphenyl)cyclopropyl)-2,2′-bipyrimidine], the negative logarithm of the EC50 (pEC50) is 6.21.

As to `Fc1cc(C2CC2c2cnc(-c3ncccn3)nc2)cc(N2CCCC2)c1Cl` (single isomer, unassigned) [Example 91, trans-5-(2-(4-Chloro-3-fluoro-5-(pyrrolidin-1-yl)phenyl)cyclopropyl)-2,2′-bipyrimidine], the pEC50 is 7.85.

As for `Fc1cc(C2CC2c2cnc(-c3ncccn3)nc2)cc(N2CCCC2)c1F` (single isomer, unassigned) [Example 93, trans-5-(2-(3,4-Difluoro-5-(pyrrolidin-1-yl)phenyl)cyclopropyl)-2,2′-bipyrimidine], the pEC50 is 7.72.

Regarding `CO[C@@H]1CCN(c2cc(C3CC3c3cnc(-c4ncccn4)nc3)ccc2F)C1` (single isomer, unassigned) [Example 95], the negative-log EC50 (pEC50) is 6.77.

Turning to `CO[C@@H]1CCN(c2cc(C3CC3c3cnc(-c4ncccn4)nc3)cc(F)c2F)C1` (single isomer, unassigned) [Example 96], the pEC50 is 7.03.

Consider `CO[C@@H]1CCN(c2cc(C3CC3c3cnc(-c4ncccn4)nc3)cc(F)c2F)C1` (single isomer, unassigned) [Example 97], for which the negative logarithm of the EC50 (pEC50) was 7.85.

Consider `COc1cc(C2CC2c2cnc(-c3ncccn3)nc2)cc(OC)c1Cl` (single isomer, unassigned) [Example 98, trans-5-(2-(4-Chloro-3,5-dimethoxyphenyl)cyclopropyl)-2,2′-bipyrimidine], for which the negative-log EC50 (pEC50) was 6.46.

On to `COc1cc(C2CC2c2cnc(-c3ncccn3)nc2)cc(OC)c1Cl` (single isomer, unassigned) [Example 99, trans-5-(2-(4-Chloro-3,5-dimethoxyphenyl)cyclopropyl)-2,2′-bipyrimidine], for which the pEC50 is 5.52.
